# Laboratory results published in patent US20240197695A1, “COMPOUND FOR PREVENTION OR TREATMENT OF KIDNEY DISEASE” (ONCOCROSS CO.,LTD, priority 2021, published 2024).
# Like-named read-outs stand apart in the source and are kept apart here.
# Columns and labels:
# Type in all cases: in vivo, mice (C57BL/6)
# [1] = Drinking water intake of mice in diabetic nephrosis model; set-up: unit not given here
# Method: (§1) STZ (Sigma-aldrich, S0130, 40 mg/kg b.w., in 0.1 M citrate buffer pH 4.5) was intraperitoneally administered to 9-week-old male mice (C57BL/6) once/1 day for 5 days to perform a first disease induction. After 7 weeks of the first induction, a second induction was performed using the same method as the first induction. For 5 days of an STZ administration period for the first induction, 10% sucrose was administered as drinking water. In addition, after 14 days of the second administration, blood glucose levels were confirmed to confirm the induction rate, and the induced animals were separated into groups. Experimental substances (R)-4-{(R)-1-[7-(3,4,5-trimethoxy-phenyl)-[1,6] naphthyridin-5-yloxy]-ethyl}pyrrolidin-2-one (BI-1002494) and cromolyn (OC-101) were administered orally into the stomach at 10 mL/kg using an administration syringe (sonde) before 16:00 daily for 12 weeks at a frequency of 7 days/week at doses shown in Table 1 below, and dexamethasone was orally administered as a positive control substance.
# [2] = test system: diabetic nephrosis animal models; conditions: for CRE, Mean / GLU, Mean / T-CHO, Mean: after observation period, fasted
# Method: as §1
# After the observation period for mice of each group in Example 1 was terminated, all surviving animals were fasted in the same manner as when measuring blood glucose levels, and then anesthetized by inhaling isoflurane, and blood was collected from the abdominal vena cava through laparotomy. After the blood collection was completed, the veins and arteries were cut under anesthesia and exsanguinated. The collected blood was left at room temperature for 30 minutes or more and then centrifuged at 3,000 rpm for 20 minutes. Thereafter, glucose, Blood urea nitrogen (BUN), and creatinine were analyzed using an automated blood biochemistry analyzer (Hitachi 3100, Hitachi Co. Ltd., Japan). Indoxyl sulfate (a substance that was mainly produced in the intestines to cause renal injury, and a substance that caused end-stage renal failure by advancing renal function damage in patients with renal failure during hemodialysis) was analyzed using LC MS/MS. In addition, blood insulin was analyzed according to a method represented by a commercial Mouse Insulin ELISA KIT (#AKRIN-011T, Sibayagi Co. Ltd., Japan).
# [3] = test system: diabetic nephrosis animal models; experiment: Histopathological change (H&E) in liver, kidney, pancreas; conditions: for Kidney: Medullar apoptosis / Kidney: Medullar mineralization / Kidney: NHL / Kidney: bowman's capsule hyperplasia / Kidney: pappillary mineralization / Liver: Apoptosis / Liver: Cytoplasmic glycogen / Liver: Eosinophlic focus of cellular alteration / Liver: Mononuclear cell infiltrate / Liver: NHL / Pancrease: Apoptosis / Pancrease: NHL / Pancrease: islet degeneration / Pancrease: islet hypertrophy / Pancrease: islet, mononuclear cell infillitrate: count in group of 10 animals
# Method: as §1
# At the end of the observation period, the mice in each group of Example 1 were confirmed to be dead, and the liver, kidney, and pancreas were extracted and fixed with 10% neutral buffered formalin (NBF) in at least 20 times the tissue volume. The fixed tissue was sectioned to a thickness of approximately 4 mm and then produced into a paraffin block through general tissue processing and embedding processes. Thereafter, the tissue was sectioned to a thickness of 4 μm using a rotary microtome, and then H&E staining was performed, and histopathological changes were observed.
# [4] = administered group (12.5, 25, 50 mg/kg)
smiles,measurement,setting,value
"COc1cc(-c2cc3ncccc3c(O[C@H](C)[C@H]3CNC(=O)C3)n2)cc(OC)c1OC [BI-1002494, (R)-4-{(R)-1-[7-(3,4,5-trimethoxy-phenyl)-[1,6]naphthyridin-5-yloxy]-ethyl}pyrrolidin-2-one]","Drinking water intake, Mean","[1]; 12.5 mg/kg/day oral, week 0",7.80
same,"Drinking water intake, Mean","[1]; 12.5 mg/kg/day oral, week 1",7.91
same,"Drinking water intake, Mean","[1]; 12.5 mg/kg/day oral, week 2",7.41
same,"Drinking water intake, Mean","[1]; 12.5 mg/kg/day oral, week 3",7.39
same,"Drinking water intake, Mean","[1]; 12.5 mg/kg/day oral, week 4",7.38
same,"Drinking water intake, Mean","[1]; 12.5 mg/kg/day oral, week 5",7.16
same,"Drinking water intake, Mean","[1]; 12.5 mg/kg/day oral, week 6",7.34
same,"Drinking water intake, Mean","[1]; 12.5 mg/kg/day oral, week 7",7.24
same,"Drinking water intake, Mean","[1]; 12.5 mg/kg/day oral, week 8",6.99
same,"Drinking water intake, Mean","[1]; 12.5 mg/kg/day oral, week 9",7.40
same,"Drinking water intake, Mean","[1]; 12.5 mg/kg/day oral, week 10",7.46
same,"Drinking water intake, Mean","[1]; 25 mg/kg/day oral, week 0",7.07
same,"Drinking water intake, Mean","[1]; 25 mg/kg/day oral, week 1",7.62
same,"Drinking water intake, Mean","[1]; 25 mg/kg/day oral, week 2",7.86
same,"Drinking water intake, Mean","[1]; 25 mg/kg/day oral, week 3",7.38
same,"Drinking water intake, Mean","[1]; 25 mg/kg/day oral, week 4",6.73
same,"Drinking water intake, Mean","[1]; 25 mg/kg/day oral, week 5",7.19
same,"Drinking water intake, Mean","[1]; 25 mg/kg/day oral, week 6",7.34
same,"Drinking water intake, Mean","[1]; 25 mg/kg/day oral, week 7",7.69
same,"Drinking water intake, Mean","[1]; 25 mg/kg/day oral, week 8",7.43
same,"Drinking water intake, Mean","[1]; 25 mg/kg/day oral, week 9",7.54
same,"Drinking water intake, Mean","[1]; 25 mg/kg/day oral, week 10",7.15
same,"Drinking water intake, Mean","[1]; 50 mg/kg/day oral, week 0",7.27
same,"Drinking water intake, Mean","[1]; 50 mg/kg/day oral, week 1",7.04
same,"Drinking water intake, Mean","[1]; 50 mg/kg/day oral, week 2",6.07
same,"Drinking water intake, Mean","[1]; 50 mg/kg/day oral, week 3",6.96
same,"Drinking water intake, Mean","[1]; 50 mg/kg/day oral, week 4",7.13
same,"Drinking water intake, Mean","[1]; 50 mg/kg/day oral, week 5",6.48
same,"Drinking water intake, Mean","[1]; 50 mg/kg/day oral, week 6",6.93
same,"Drinking water intake, Mean","[1]; 50 mg/kg/day oral, week 7",6.39
same,"Drinking water intake, Mean","[1]; 50 mg/kg/day oral, week 8",6.91
same,"Drinking water intake, Mean","[1]; 50 mg/kg/day oral, week 9",6.61
same,"Drinking water intake, Mean","[1]; 50 mg/kg/day oral, week 10",6.22
same,"CRE, Mean",[2]; 12.5 mg/kg/day oral,0.1 mg/dL
same,"GLU, Mean",[2]; 12.5 mg/kg/day oral,317.1^# mg/dL
same,"T-CHO, Mean",[2]; 12.5 mg/kg/day oral,141.6 mg/dL
same,"CRE, Mean",[2]; 25 mg/kg/day oral,0.1 mg/dL
same,"GLU, Mean",[2]; 25 mg/kg/day oral,280.0^# mg/dL
same,"T-CHO, Mean",[2]; 25 mg/kg/day oral,125.0 mg/dL
same,"CRE, Mean",[2]; 50 mg/kg/day oral,0.1 mg/dL
same,"GLU, Mean",[2]; 50 mg/kg/day oral,213.6^# mg/dL
same,"T-CHO, Mean",[2]; 50 mg/kg/day oral,138.7 mg/dL
same,"Glucose, summary",[2]; after induction of diabetic renal diseases,decreased in a dose-dependent manner
same,GLU compared with disease control group,"[2]; all administered groups (12.5, 25, 50 mg/kg)","statistically significantly reduced, and a clear dose dependence was observed"
same,Kidney: Medullar apoptosis,"[3]; G4, 12.5 mg/kg oral",3
same,Kidney: Medullar mineralization,"[3]; G4, 12.5 mg/kg oral",0
same,Kidney: NHL,"[3]; G4, 12.5 mg/kg oral",7
same,Kidney: bowman's capsule hyperplasia,"[3]; G4, 12.5 mg/kg oral",0
same,Kidney: pappillary mineralization,"[3]; G4, 12.5 mg/kg oral",0
same,Liver: Apoptosis,"[3]; G4, 12.5 mg/kg oral",2
same,Liver: Cytoplasmic glycogen,"[3]; G4, 12.5 mg/kg oral",1
same,Liver: Eosinophlic focus of cellular alteration,"[3]; G4, 12.5 mg/kg oral",0
same,Liver: Mononuclear cell infiltrate,"[3]; G4, 12.5 mg/kg oral",1
same,Liver: NHL,"[3]; G4, 12.5 mg/kg oral",7
same,Pancrease: Apoptosis,"[3]; G4, 12.5 mg/kg oral",1
same,Pancrease: NHL,"[3]; G4, 12.5 mg/kg oral",5
same,Pancrease: islet degeneration,"[3]; G4, 12.5 mg/kg oral",2
same,Pancrease: islet hypertrophy,"[3]; G4, 12.5 mg/kg oral",1
same,"Pancrease: islet, mononuclear cell infillitrate","[3]; G4, 12.5 mg/kg oral",1
same,Kidney: Medullar apoptosis,"[3]; G5, 25 mg/kg oral",2
same,Kidney: Medullar mineralization,"[3]; G5, 25 mg/kg oral",1
same,Kidney: NHL,"[3]; G5, 25 mg/kg oral",7
same,Kidney: bowman's capsule hyperplasia,"[3]; G5, 25 mg/kg oral",0
same,Kidney: pappillary mineralization,"[3]; G5, 25 mg/kg oral",0
same,Liver: Apoptosis,"[3]; G5, 25 mg/kg oral",3
same,Liver: Cytoplasmic glycogen,"[3]; G5, 25 mg/kg oral",0
same,Liver: Eosinophlic focus of cellular alteration,"[3]; G5, 25 mg/kg oral",0
same,Liver: Mononuclear cell infiltrate,"[3]; G5, 25 mg/kg oral",2
same,Liver: NHL,"[3]; G5, 25 mg/kg oral",7
same,Pancrease: Apoptosis,"[3]; G5, 25 mg/kg oral",0
same,Pancrease: NHL,"[3]; G5, 25 mg/kg oral",8
same,Pancrease: islet degeneration,"[3]; G5, 25 mg/kg oral",1
same,Pancrease: islet hypertrophy,"[3]; G5, 25 mg/kg oral",1
same,"Pancrease: islet, mononuclear cell infillitrate","[3]; G5, 25 mg/kg oral",0
same,Kidney: Medullar apoptosis,"[3]; G6/G7, 50 mg/kg oral",1
same,Kidney: Medullar mineralization,"[3]; G6/G7, 50 mg/kg oral",2
same,Kidney: NHL,"[3]; G6/G7, 50 mg/kg oral",7
same,Kidney: bowman's capsule hyperplasia,"[3]; G6/G7, 50 mg/kg oral",0
same,Kidney: pappillary mineralization,"[3]; G6/G7, 50 mg/kg oral",0
same,Liver: Apoptosis,"[3]; G6/G7, 50 mg/kg oral",2
same,Liver: Cytoplasmic glycogen,"[3]; G6/G7, 50 mg/kg oral",0
same,Liver: Eosinophlic focus of cellular alteration,"[3]; G6/G7, 50 mg/kg oral",0
same,Liver: Mononuclear cell infiltrate,"[3]; G6/G7, 50 mg/kg oral",1
same,Liver: NHL,"[3]; G6/G7, 50 mg/kg oral",8
same,Pancrease: Apoptosis,"[3]; G6/G7, 50 mg/kg oral",0
same,Pancrease: NHL,"[3]; G6/G7, 50 mg/kg oral",7
same,Pancrease: islet degeneration,"[3]; G6/G7, 50 mg/kg oral",1
same,Pancrease: islet hypertrophy,"[3]; G6/G7, 50 mg/kg oral",2
same,"Pancrease: islet, mononuclear cell infillitrate","[3]; G6/G7, 50 mg/kg oral",0
same,Cytoplasmic glycogen in the liver,[3]; [4],reduced in the liver
same,Medullar apoptosis in the kidney,[3]; [4],reduced in the kidney in a dose-dependent manner
